Measurements reported in patent publication US6458381B1, “Lipids and their use, for example, in liposomes” (priority 1996, dated 2002).

How the values were obtained:
Type in all cases: cell-based, human
[1] = tested on: HeLa cells; assay: Intracellular delivery of fluorescein labelled phosphothioate oligonucleotide, fluorescent microscopy
Procedure: HeLa cells (plated one day before the experiment, 2×10^5 cells per well, 6-well plate) were grown on glass microscope slides in 2 ml of RPMI 1640 supplemented with 10% FCS. Before the experiment, the medium was replaced with RPMI 1640 without serum.
Formation of oligonucleotide-compound (1) complexes was done as follows. 10 μg of phosphothioate oligonucleotide was dissolved in […] of transfection buffer. 16 μg and 50 μg of compound (1) were diluted with transfection buffer to the final volume of 100 μl. The two solutions were mixed together and incubated for 10 min. Oligonucleotide solution without compound (1) was diluted with 100 μl of transfection buffer. The resultant solutions (200 μl per well) were added to the cell cultures (final concentration of oligonucleotide was about 1 μM, compound (1) 8 μM and 25 μM). The complexes were incubated with the cells for 4 hours. The medium was then substituted with a complete growth medium.
At 4 and 24 hours, cells were washed three times with PBS and fixed with 1% glutaraldehyde solution for 15 min. After fixation, cells were washed three times with PBS and mounted in glycerol mounting solution (10 mM phosphate, 150 mM NaCl, 70% glycerol, pH 7.5). The localization of fluorescein labelled phosphothioate oligonucleotide was determined by fluorescent microscopy, using a Zeiss fluorescent microscope.

[2] = tested on: K562 cells; assay: Transfection of K562 suspension cells with pCMVL, luciferase assay; conditions: K562, presence of serum
Procedure: HeLa (CCL2, epitheloid carcinoma, human), COS-7 (CRL 1651, kidney, SV-40 transformed, African green monkey), HT-29 (HTB 38, adenocarcinoma, colon, human), CV-1 (CCL 70, kidney, African green monkey), 818-4 (adenocarcinoma, pancreas, human), H4IIE (CRL 1548; hepatoma, rat), K562 (CCL 243; chronic myelogenous leukemia, human), HL-60 (CCL 240; promyelotic leukemia, human) were grown in 5% CO2 at 37° C. on plastic tissue culture flasks in RPMI 1640 or DMEM with 10% fetal calf serum and supplemented with penicillin at 100 units per ml, streptomycin at 100 μg per ml, 2 mM glutamine and 0.1 μM dexamethasone for H4IIE cells.
At 24 hours before transfection, the cells were placed in fresh complete growth medium. Just before transfection, the cells were collected, resuspended in fresh medium with or without 10% FCS at 0.25×10^6 cells per ml, and placed in 24-well plates, 2 ml per well.
The cells were normally harvested 24 hours after transfection (the time of harvesting is an important variable and should be optimized), collected by centrifugation and resuspended in 10 ml of PBS, again centrifuged, and the cell pellet was transferred into a 1.5 ml Eppendorf tube with 1 ml PBS. The cells were centrifuged in the Eppendorf centrifuge (14000 rpm for 20 sec), The resulting cells were lysed in 100 μl of lysis buffer (described above). […]

[3] = tested on: HeLa cells; assay: Transfection of HeLa cells with pCMVL, luciferase assay
Procedure: The cells were resuspended in fresh medium and placed either in 24-well plates (5×10^4 cells per well) or in 6-well plates (2-2.5×10^4 cells per well). Just before transfection, the cells were placed in fresh medium with or without 10% FCS. In general, cells were transfected at 50 to 70% confluence. […] Cell debris was removed by centrifugation (14000 rpm for 2 min). Usually, enzyme activity (see below) was determined directly after cell lysis.
Plasmid DNA (from a stock solution of a concentration of about 1 mg/ml) and cationic lipids (from a stock solution of a concentration 1 to 2 mg/ml) were diluted separately in 1.5 ml Eppendorf tubes with 10 mM Hepes, 0.9% NaCl buffer, pH 7.4, to the final volume of 100 μl. The amount of DNA in typical transfections varied from 1 to 2 μg per 100 μl. The amount of a cationic lipid varied from 0 to 20 μg per 100 μl. Two solutions were mixed together to form a DNA-lipid solution. After incubation for 10 min at room temperature the resultant DNA-lipid solution was added to the cell cultures, growing as described before, and gently mixed. Alternatively, the DNA-lipid solution was diluted with 800 μl (for 24- or 6-well plates) of the appropriate medium (+/−FCS) and mixed. The diluted solution was then overlayed onto the cells, rinsed with the appropriate medium. […] A typical incubation time in the absence of serum was 4 hours. The transfection medium was then substituted with a complete growth medium. In the presence of serum, the transfection medium was usually not replaced and the cells continued to grow in the presence of complexes until the end of experiments (one step transfection).
Luciferase assay. […] The luciferase assay was performed by adding 5 to 10 μl of cell extract.
Just before transfection, the medium was removed and cells were supplied with 1 ml fresh medium with or without serum. […] In the absence of serum, the transfection medium was removed after 4 hours, and the cells were supplied with 1 ml fresh serum supplemented medium. […]

[4] = tested on: HeLa cells; assay: Intracellular delivery of fluorescein labelled anionic polypeptide, fluorescent microscopy; conditions: 1 μM labelled polyanion in the presence of 25 μM compound (1)

Row | Molecule | fluorescence of cells ([1]; 1 μM fluorescein labelled oligonucleotide alone, after 4 and 24 hours, without serum) | effect of serum on fluorescence and distribution ([1]; experiments performed in the presence of serum) | transfection higher than obtained with DOTAP [2] | fluorescence intensity at 25 μM compared with 8 μM compound (1) ([1]; 1 μM fluorescein labelled oligonucleotide) | fluorescence of cells ([1]; 1 μM fluorescein labelled oligonucleotide in the presence of compound (1) (8 μM and 25 μM), 4 hours) | fluorescence of cells ([1]; 1 μM fluorescein labelled oligonucleotide in the presence of compound (1), after 24 hours) | transfection in comparison to DOTAP transfection ([3]; absence of serum) [fold] | transfection in comparison to DOTAP transfection ([3]; presence of serum) [fold] | time after which the same luciferase activity (4.5×10^4 light units) was observed ([3]; with serum) [hours] | fluorescence of cells ([4]; after 45 min) | fluorescence of cells ([4]; after 24 hours)
1 | 5′-ACT TGG ATA CGC ACG-fluorescein-3 [fluorescein labelled oligonucleotide, reference compound] | faint fluorescence | did not change the overall fluorescence and distribution | – | – | – | – | – | – | – | – | –
2 | CCCCCCCC/C=C\CCCCCCCC(=O)OCCN(CCOC(=O)CCCCCCC/C=C\CCCCCCCC)C(=O)[C@@H](N)CCCCN.Cl.Cl [Compound 1, L-Lysine-bis(O,O′-oleoyl-β-hydroxyethyl)amide dihydrochloride] | – | – | more than 10 fold | higher | very bright punktate fluorescence in the cytoplasm | very clear punktate fluorescence in the cytoplasm | 6 | 12 | 3 | bright cytoplasmic punktate fluorescence | very bright punktate fluorescence in the cytoplasm
